For experiment [1], the target named is T1, human RXFP4 (hRXFP4-CHO stably transfected cell line) (Homo sapiens, UniProt Q8TDU9).
T1 construct: expressed in transfected cells; host or cells: CHO
The experiment can be described thus: Measurement of intracellular cAMP concentration (in vitro RXFP4 agonist activity). The format is cell-based. Conditions: hRXFP4-CHO cells, 500 nM Forskolin; for Emax ± S.E.M. (% INSL5): relative to INSL5. Here is the method:
1. Detection Method: Measurement of Intracellular cAMP Concentration
CAMP detection kit (PerkinElmer), cell culture box (Thermo Fisher Scientific), EnVision multifunctional enzyme-linked immunosorbent assay (PerkinElmer), Forskolin (Sigma Aldrich), IBMX (Sigma Aldrich), DSMO (Sigma Aldrich), hINSL5 (Genova, human insulin-like peptide 5), hRXFP4-CHO stably transfected cell line for stable expression of human RXFP4, and test compound.
Stably transfected hRXFP4-CHO cells were seeded at 2.5×10^5 cells/mL the day before the experiment to maintain a growth density of 70%-80% in the culture dish the next day. On the day of the experiment, cells were digested with trypsin free digestion solution or 0.02% EDTA PBS solution, centrifugated, the supernatant was discarded, and cAMP experimental buffer (0.5 mM IBMX+5 mM HEPES+0.1% BSA) was prepared using 1×HBSS (calcium and magnesium free) solution. The cells were resuspended and inoculated to a 384 well plate at 4000 cells per well. The compound which was diluted with DMSO to different concentrations were added to the above 384 well plate. At the same time, 500 nM Forskolin was added and incubated at room temperature for 40 minutes. Then Eu cAMP and ULight anti cAMP working solutions were added according to the cAMP detection kit instructions. After incubation at room temperature for 40 minutes, an EnVision multifunctional enzyme-linked immunosorbent assay reader was used to read the results (excitation wavelength of 320 or 340 nm, detection emission wavelength of 665 nm).

Another experiment deals with T2, RXFP4 (HRXFP4 CHO cells) (Homo sapiens, UniProt Q8TDU9).
T2 construct: expressed in transfected cells; host or cells: CHO
T2 sequence (Q8TDU9 whole entry): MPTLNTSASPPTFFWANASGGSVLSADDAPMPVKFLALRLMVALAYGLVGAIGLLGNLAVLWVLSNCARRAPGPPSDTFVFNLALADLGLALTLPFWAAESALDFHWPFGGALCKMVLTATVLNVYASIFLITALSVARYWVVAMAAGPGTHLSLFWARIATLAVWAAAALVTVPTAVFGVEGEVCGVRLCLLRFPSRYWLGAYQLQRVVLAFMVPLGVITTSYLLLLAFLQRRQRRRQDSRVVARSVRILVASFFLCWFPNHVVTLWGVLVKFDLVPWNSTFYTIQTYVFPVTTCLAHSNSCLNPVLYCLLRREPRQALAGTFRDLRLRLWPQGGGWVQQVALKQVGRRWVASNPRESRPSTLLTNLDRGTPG
The experiment can be described thus: Ligand receptor affinity detection (Eu-R3/I5 competition on HRXFP4 CHO cells). Conditions: for Ki: 5 nM Eu-R3/I5, 1 hour room temperature, read-out: pKi ± S.E.M. (converted); for Span ± S.E.M. (% R3/I5): 5 nM Eu-R3/I5, relative to R3/I5. In kind it is binding. The method, then:
2. Detection Method: Ligand Receptor Affinity Detection
Stably transfected HRXFP4 CHO cells and Eu—R3/I5 (lanthanide element europium labeled chimeric peptide R3/I5), BMG POLARstar reader (BMG Labtech), and test compound.
HRXFP4 CHO was introduced into a 96 well plate at 80000 cells per well. After 24 hours of cell culture in the incubator, discarded the supernatant, and washed once with PBS, then a binding buffer containing 1% BSA was added and incubated at room temperature for 1 hour. The cell plate was then washed once with PBS, followed by the addition of different concentrations of positive controls and test compounds, and incubated at room temperature with 5 nM Eu—R3/I5 for 1 hour.
After washing the cell plate once with PBS, an enhancement solution was added. After 45 minutes, the fluorescence value was measured using a BMG POLARstar reader (excitation wavelength of 340 nm, detection emission wavelength of 614 nm).

Usually EC50 stands for the midpoint of the concentration-response curve.

T1 sequence (Q8TDU9 whole entry): as above

Take `CCOc1cc2c(cc1OC)CCN(C(=O)N1CCOCC1)[C@@H]2CCc1c[nH]c2ccc(OC)cc12` [(R)-A1, (R)-(7-ethoxy-6-methoxy-1-(2-(5-methoxy-1H-indol-3-yl)ethyl)-3,4-dihydroisoquinolin-2(1H)-yl)(morpholino)methanone]: in experiment [1] (40 minutes room temperature), a half-maximal response (EC50) required 933 nM. Besides, in experiment [1], the “Emax ± S.E.M. (% INSL5)” value is 60.14 ± 10.64 % INSL5. The Ki on RXFP4 (HRXFP4 CHO cells) is greater than 100000 nM.

With `CCOc1cc2c(cc1OC)CCN(C(=O)N1CCOCC1)[C@H]2CCc1c[nH]c2ccc(OC)cc12` [(S)-A1, (S)-(7-ethoxy-6-methoxy-1-(2-(5-methoxy-1H-indol-3-yl)ethyl)-3,4-dihydroisoquinolin-2(1H)-yl)(morpholino)methanone], the “pEC50 ± S.E.M.” value in experiment [1] (40 minutes room temperature) turned out to be 7.24 ± 0.12. The “Emax ± S.E.M. (% INSL5)” value in experiment [1] is given as 98.76 ± 5.71 % INSL5. Also, on RXFP4 (HRXFP4 CHO cells), the Ki was 58.9 nM and the “Span ± S.E.M. (% R3/I5)” value is reported as 81.87 ± 4.47 % R3/I5.

Compound `CCOc1cc2c(cc1OC)CCN(C(=O)N1CCOCC1)C2CCc1c[nH]c2ccc(OC)cc12` (stereo not drawn) [Compound A1, (7-ethoxy-6-methoxy-1-(2-(5-methoxy-1H-indol-3-yl)ethyl)-3,4-dihydroisoquinolin-2(1H)-yl) (morpholino)methanone] gave an EC50 in experiment [1] (40 minutes room temperature) of 87.1 nM. Besides, the “Emax ± S.E.M. (% INSL5)” value in experiment [1] was 87.64 ± 4.58 % INSL5. For the same compound, at RXFP4 (HRXFP4 CHO cells), the Ki was 148 nM and the “Span ± S.E.M. (% R3/I5)” value was found to be 88.98 ± 6.07 % R3/I5.

`CCOc1cc2c(cc1OC)CCN(C(=O)N1CCC(F)CC1)C2CCc1c[nH]c2ccc(OC)cc12` (stereo not drawn) [Compound A3, (4-fluoropiperidin-1-yl) (7-ethoxy-6-methoxy-1-(2-(5-methoxy-1H-indol-3-yl)ethyl)-3,4-dihydroisoquinolin-2(1H)-yl)methanone] had an EC50 in experiment [1] (40 minutes room temperature) of 204 nM. The “Emax ± S.E.M. (% INSL5)” value in experiment [1] is on record as 101.82 ± 9.08 % INSL5. Also, at RXFP4 (HRXFP4 CHO cells), the Ki is 209 nM and the “Span ± S.E.M. (% R3/I5)” value is 86.26 ± 6.71 % R3/I5.

`CCOc1cc2c(cc1OC)CCN(C(=O)N1CCC(F)(F)CC1)C2CCc1c[nH]c2ccc(OC)cc12` (stereo not drawn) [Compound A4, (4,4-difluoropiperidin-1-yl) (7-ethoxy-6-methoxy-1-(2-(5-methoxy-1H-indol-3-yl)ethyl)-3,4-dihydroisoquinolin-2(1H)-yl)methanone] showed an EC50 in experiment [1] (40 minutes room temperature) of 57.5 nM. In experiment [1], the “Emax ± S.E.M. (% INSL5)” value stood at 62.00 ± 5.42 % INSL5. Further, at RXFP4 (HRXFP4 CHO cells), the Ki is 631 nM and the “Span ± S.E.M. (% R3/I5)” value turned out to be 66.34 ± 7.29 % R3/I5.

Consider `CCOc1cc2c(cc1OC)CCN(C(=O)N1CC[S+]([O-])CC1)C2CCc1c[nH]c2ccc(OC)cc12` (stereo not drawn) [Compound A5, (7-ethoxy-6-methoxy-1-(2-(5-methoxy-1H-indol-3-yl)ethyl)-3,4-dihydroisoquinolin-2(1H)-yl)(1-oxothiomorpholinyl)methanone], for which, in experiment [1] (40 minutes room temperature), the EC50 is 10200 nM. The “Emax ± S.E.M. (% INSL5)” value in experiment [1] is listed as 56.43 ± 4.70 % INSL5. Besides, the Ki at RXFP4 (HRXFP4 CHO cells) was greater than 100000 nM.

`CCOc1cc2c(cc1OC)CCN(C(=O)N1CCS(=O)(=O)CC1)C2CCc1c[nH]c2ccc(OC)cc12` (stereo not drawn) [Compound A6, (1,1-dioxothiomorpholino) (7-ethoxy-6-methoxy-1-(2-(5-methoxy-1H-indol-3-yl)ethyl)-3,4-dihydroisoquinolin-2(1H)-yl)methylmethanone]: the EC50 in experiment [1] (40 minutes room temperature) is 9330 nM. The “Emax ± S.E.M. (% INSL5)” value in experiment [1] was determined as 51.74 ± 6.72 % INSL5. At RXFP4 (HRXFP4 CHO cells), the Ki was greater than 100000 nM.

Take `CCOc1cc2c(cc1OC)CCN(C(=O)c1ccccn1)C2CCc1c[nH]c2ccc(OC)cc12` (stereo not drawn) [Compound A9, (7-ethoxy-6-methoxy-1-(2-(5-methoxy-1H-indol-3-yl)ethyl)-3,4-dihydroisoquinolin-2(1H)-yl) (pyridin-2-yl)methanone]: it took 14800 nM to reach a half-maximal effect in experiment [1] (40 minutes room temperature) (EC50). In experiment [1], the “Emax ± S.E.M. (% INSL5)” value came out at 44.09 ± 5.25 % INSL5. Also, the Ki on RXFP4 (HRXFP4 CHO cells) is greater than 100000 nM.

The compound `COc1ccc2[nH]cc(CCC3c4cc(OCc5ccccc5)c(OC)cc4CCN3C(=O)N3CCOCC3)c2c1` (stereo not drawn) [Compound A30, (7-(benzyloxy)-6-methoxy-1-(2-(5-methoxy-1H-indol-3-yl)ethyl)-3,4-dihydroisoquinolin-2(1H)-yl) (morpholino)methanone] showed an EC50 in experiment [1] (40 minutes room temperature) of 427 nM. Moreover, the “Emax ± S.E.M. (% INSL5)” value in experiment [1] worked out at 82.33 ± 8.47 % INSL5. At RXFP4 (HRXFP4 CHO cells), the Ki was 851 nM and the “Span ± S.E.M. (% R3/I5)” value came out at 81.61 ± 7.65 % R3/I5.

Consider `CCOc1cc2c(cc1OC)CCN(C(=O)N1CCOCC1)C2CCc1c[nH]c2ccc(C#N)cc12` (stereo not drawn) [Compound A57, 3-(2-(7-ethoxy-6-methoxy-2-(morpholine-4-carbonyl)-1,2,3,4-tetrahydroisoquinolin-1-yl)ethyl)-1H-indole-5-carbonitrile], for which the midpoint of the response in experiment [1] (40 minutes room temperature), the EC50, lay at 27.5 nM. Further, the “Emax ± S.E.M. (% INSL5)” value in experiment [1] turned out to be 82.15 ± 4.95 % INSL5. On RXFP4 (HRXFP4 CHO cells), the Ki was 129 nM and the “Span ± S.E.M. (% R3/I5)” value is given as 92.06 ± 3.95 % R3/I5.

In the case of `CCOc1cc2c(cc1OC)CCN(C(=O)N1CCOCC1)C2CCc1c[nH]c2c(C)cc(OC)cc12` (stereo not drawn) [Compound A58, (7-ethoxy-6-methoxy-1-(2-(5-methoxy-7-methyl-1H-indol-3-yl)ethyl)-3,4-dihydroisoquinolin-2(1H)-yl)(morpholino) methanone], the EC50 in experiment [1] (40 minutes room temperature) is 447 nM. Also, the “Emax ± S.E.M. (% INSL5)” value in experiment [1] is given as 92.58 ± 7.46 % INSL5. Also, the Ki on RXFP4 (HRXFP4 CHO cells) is greater than 100000 nM.

Turning to `CCOc1cc2c(cc1OC)CCN(C(=O)N1CCOCC1)C2CCc1c[nH]c2c(CC)cccc12` (stereo not drawn) [Compound A60, (7-Ethoxy-1-(2-(7-ethyl-1H-indol-3-yl)ethyl)-6-methoxy-3,4-dihydroisoquinolin-2(1H)-yl) (morpholino)methanone], in experiment [1] (40 minutes room temperature), it took 417 nM to reach a half-maximal effect (EC50). Moreover, the “Emax ± S.E.M. (% INSL5)” value in experiment [1] is recorded as 72.49 ± 8.04 % INSL5. In addition, on RXFP4 (HRXFP4 CHO cells), the Ki was 1700 nM and the “Span ± S.E.M. (% R3/I5)” value worked out at 75.02 ± 7.56 % R3/I5.

On to `CCOc1cc2c(cc1OC)CCN(C(=O)N1CCOCC1)C2CCc1c[nH]c2ncccc12` (stereo not drawn) [Compound A69, (1-(2-(1H-pyrrolo[2,3-b]pyridin-3-yl)ethyl)-7-ethoxy-6-methoxy-3,4-dihydroisoquinolin-2(1H)-yl) (morpholino)methanone], for which, in experiment [1] (40 minutes room temperature), the EC50 was 10000 nM. In addition, in experiment [1], the “Emax ± S.E.M. (% INSL5)” value was determined as 58.19 ± 7.80 % INSL5. The Ki at RXFP4 (HRXFP4 CHO cells) is greater than 100000 nM.

Regarding `COc1cc2c(cc1OC)[C@H](CCc1c[nH]c3cc(C)ccc13)N(C(=O)C1CCOCC1)CC2` [Compound A76, (S)-(6,7-dimethoxy-1-(2-(6-methyl-1H-indol-3-yl)ethyl)-3,4-dihydroisoquinolin-2(1H)-yl) (tetrahydro-2H-pyran-4-yl)methanone], the EC50 in experiment [1] (40 minutes room temperature) was 3160 nM. Besides, the “Emax ± S.E.M. (% INSL5)” value in experiment [1] came out at 43.69 ± 7.43 % INSL5. The Ki on RXFP4 (HRXFP4 CHO cells) is greater than 100000 nM.

`COc1cc2c(cc1OC)C(CCc1c[nH]c3ccccc13)N(C(=O)c1ccncc1)CC2` (stereo not drawn) [Compound A77, (1-(2-(1H-indol-3-yl)ethyl)-6,7-dimethoxy-3,4-dihydroisoquinolin-2(1H)-yl)(pyridin-4-yl)methanone] gave an EC50 in experiment [1] (40 minutes room temperature) of 437 nM. Also, the “Emax ± S.E.M. (% INSL5)” value in experiment [1] is 25.96 ± 5.50 % INSL5. Also, the Ki at RXFP4 (HRXFP4 CHO cells) is greater than 100000 nM.

Turning to `CCOc1cc2c(cc1OC)CCN(C(=O)c1cscn1)[C@H]2CCc1c[nH]c2ccc(OC)cc12` [Compound A80, (S)-(7-ethoxy-6-methoxy-1-(2-(5-methoxy-1H-indol-3-yl)ethyl)-3,4-dihydroisoquinolin-2(1H)-yl) (thiazol-4-yl)methanone], the Ki at RXFP4 (HRXFP4 CHO cells) is greater than 100000 nM.

With `COc1cc2c(cc1OC)C(Cc1c[nH]c3ccccc13)N(CC1CCOCC1)CC2` (stereo not drawn) [Compound A83], the Ki on RXFP4 (HRXFP4 CHO cells) is greater than 100000 nM.

Values taken from US20250340545A1, “TETRAHYDROISOQUINOLINE COMPOUND, PREPARATION METHOD THEREFOR, PHARMACEUTICAL COMPOSITION CONTAINING SAID COMPOUND, AND USE THEREOF” (SHANGHAI INSTITUTE OF MATERIA MEDICA, CHINESE ACADEMY OF …, priority 2022, published 2025).
